Laboratory results reported in PMC7050258, “Inhibition of MGAT2 modulates fat‐induced gut peptide release and fat intake in normal mice and ameliorates obesity and diabetes in ob/ob mice fed on a high‐fat diet” (FEBS Open Bio, 2020).
Values joined by “and” are separate entries in the source; they are usually repeats but may differ in a detail not shown here. Equal entries are not always repeated.

Experiments:
ACAT1 human = target: T1, ACAT1 human (Homo sapiens, UniProt P35610); test: in vitro inhibitory activity against ACAT1; assay type: biochemical
T1 sequence (P35610 1-550): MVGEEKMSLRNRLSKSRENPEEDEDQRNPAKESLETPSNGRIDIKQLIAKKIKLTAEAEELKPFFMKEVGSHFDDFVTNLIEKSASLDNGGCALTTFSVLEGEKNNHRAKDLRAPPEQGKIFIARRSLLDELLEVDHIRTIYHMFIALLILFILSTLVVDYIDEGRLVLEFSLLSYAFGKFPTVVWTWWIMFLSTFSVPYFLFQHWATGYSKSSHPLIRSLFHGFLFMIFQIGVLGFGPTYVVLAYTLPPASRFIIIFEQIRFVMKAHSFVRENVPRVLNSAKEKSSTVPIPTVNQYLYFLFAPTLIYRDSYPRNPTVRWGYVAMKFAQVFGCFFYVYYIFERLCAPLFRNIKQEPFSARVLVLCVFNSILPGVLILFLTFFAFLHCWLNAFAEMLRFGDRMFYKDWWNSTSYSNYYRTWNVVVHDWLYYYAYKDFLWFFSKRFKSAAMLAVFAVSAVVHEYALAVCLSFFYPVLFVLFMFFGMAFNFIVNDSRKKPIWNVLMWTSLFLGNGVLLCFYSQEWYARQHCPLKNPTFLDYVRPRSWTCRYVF
Description: CpdB, CpdA, and pioglitazone were synthesized at Takeda Pharmaceutical Co., Ltd. (Tokyo, Japan). The in vitro inhibitory activities of CpdB and CpdA against MGAT2 and related acyltransferases (DGAT1, DGAT2, and ACAT1) were evaluated as described in our previous report 17 and patent application 19. Liraglutide (Victoza) was purchased from Novo Nordisk Pharma Ltd. (Bagsvaerd, Denmark). All other chemicals were of analytical grade and purchased from Wako Pure Chemicals (Osaka, Japan).

[1] = Pharmacokinetics of CpdB in mice; assay type: in vivo; settings: C57BL/6J, mouse, plasma, 30 mg·kg^−1, 30 mg/kg single oral, mice fed an HFD, read-out: average plasma CpdB level 24 h after administration
Description: Fifty‐four‐week‐old C57BL/6J mice fed an HFD (45% kcal fat, 4.7 kcal·g^−1; D12451; Research Diets, Inc., New Brunswick, NJ, USA) were given a single oral administration of CpdB (30 mg·kg^−1). Blood samples were collected at 0.25, 0.5, 1, 2, 4, 8, and 24 h after the administration. Concentration of plasma CpdB in each sample was measured using liquid chromatography with tandem mass spectrometry as described in our previous report 18.

HFD-fed ob/ob mice = HFD-fed ob/ob mice study; assay type: in vivo, mouse
Description: Male ob/ob mice were fed an HFD (D12451; Research Diets, Inc.) from 8 weeks of age to the end of the study. After 2 weeks of HFD feeding, the mice were divided into groups based on their body weight, food intake, glycated hemoglobin (GHb), and plasma biochemical parameters. […] Compounds were suspended in 0.5% methylcellulose. Body weight and food intake were monitored during the study. On day 34, blood was collected and GHb and plasma biochemical parameters were measured. In addition, body composition was analyzed by EchoMRI‐900 (Hitachi Aloka Medical, Ltd., Tokyo, Japan). On day 36, the mice in the vehicle‐ and CpdB‐treated group were individually placed in the metabolic chamber of an Oxymax system (Columbus Instruments, Columbus, OH, USA). After 3 h of adaptation, oxygen consumption (VO2) and carbon dioxide production (VCO2) were analyzed for 22 h (from 13:00 to 11:00). During the measurement, dosing of vehicle or CpdB was performed at 18:00. Respiratory quotient (RQ) and energy expenditure (EE) were calculated with the following formulas: RQ=VCO2/VO2 EEkcal/h=3.815+1.232×VCO2/VO2×VO2
Blood samples were collected from the tail or facial vein without anesthesia and centrifuged at 1500 g for 10 min at 4 °C to isolate the plasma. To prevent degradation of incretin hormone, blood samples were treated with not only heparin/aprotinin but also a dipeptidyl peptidase‐4 (DPP‐4) inhibitor. Plasma alanine aminotransferase […] levels were measured by an Autoanalyzer 7180 (Hitachi High‐Technologies Corporation, Tokyo, Japan). GHb was measured with an automated GHb analyzer (HLC‐723G8; Tosoh, Tokyo, Japan). Plasma insulin was measured with an ELISA kit (Shibayagi Co., Ltd., Gunma, Japan). Plasma levels of total GLP‐1 and total PYY were also measured with an ELISA kit (Wako Pure Chemicals).

[2] = CpdB 30 mg/kg, pioglitazone 3 mg/kg oral once daily, mean
[3] = CpdB 30 mg/kg, pioglitazone 3 mg/kg oral once daily, single animal values
[4] = EchoMRI, day 34, CpdB 30 mg/kg, pioglitazone 3 mg/kg, mean
[5] = EchoMRI, day 34, CpdB 30 mg/kg, pioglitazone 3 mg/kg, single animal values
[6] = dark phase, day 36, CpdB 30 mg/kg, mean
[7] = dark phase, day 36, CpdB 30 mg/kg, single animal values
[8] = day 34, CpdB 30 mg/kg, pioglitazone 3 mg/kg oral once daily, mean ± SD, n=8
[9] = light phase, day 36, CpdB 30 mg/kg, mean
[10] = light phase, day 36, CpdB 30 mg/kg, single animal values

## CC(C)(OC(=O)N[C@H]1CC[C@H](OC(=O)N2CCc3cc(S(=O)(=O)Nc4c(F)cc(Cl)cc4F)cc(N4CCCC4=O)c32)CC1)C(F)(F)F [CpdB]
ACAT1 human
  IC50: > 30 µM
[1]
  concentration at 24 h: 580 nM
HFD-fed ob/ob mice; [2]
  Body weight change from initial, AVE: 16.96%
  Cumulative food intake, AVE: 119.28 g
HFD-fed ob/ob mice; [3]
  Body weight change from initial, individual animal: 14.99% and 19.62% and 18.91% and 14.63% and 13.72% and 24.18% and 12.96% and 16.65%
  Cumulative food intake, individual animal: 119.82 g and 117.97 g and 119.56 g and 119.18 g and 110.06 g and 129.88 g and 111.80 g and 125.96 g
HFD-fed ob/ob mice; [4]
  Body composition, Fat, AVE: 59.70%
  Body composition, Lean, AVE: 40.30%
HFD-fed ob/ob mice; [5]
  Body composition, Fat, individual animal: 63.06% and 55.96% and 61.22% and 59.99% and 59.40% and 60.55% and 59.10% and 58.29%
  Body composition, Lean, individual animal: 38.78% and 40.01% and 40.60% and 39.45% and 40.90% and 41.71% and 36.94% and 44.04%
HFD-fed ob/ob mice; before dosing, mean ± SD, n=8
  GHb, Pre: 5.9 ± 0.4%
  Plasma ALT, Pre: 378 ± 76 U·L^−1
  Plasma AST, Pre: 333 ± 64 U·L^−1
  Plasma insulin, Pre: 106 ± 30 ng/mL
HFD-fed ob/ob mice; change 34 days after repeated dosing, CpdB 30 mg/kg, pioglitazone 3 mg/kg oral once daily, mean
  ΔGHb, AVE: -0.45%
HFD-fed ob/ob mice; change 34 days after repeated dosing, CpdB 30 mg/kg, pioglitazone 3 mg/kg, single animal values
  ΔGHb, individual animal: 0.60% and -0.50% and -0.20% and -1.10% and -0.60%
HFD-fed ob/ob mice; [6]
  Average EE, Dark, AVE: 0.55 kcal/h
  Average RQ, Dark, AVE: 0.87
HFD-fed ob/ob mice; [7]
  Average EE, Dark, individual animal: 0.61 kcal/h and 0.55 kcal/h and 0.54 kcal/h and 0.52 kcal/h and 0.53 kcal/h
  Average RQ, Dark, individual animal: 0.88 and 0.87 and 0.85 and 0.86
HFD-fed ob/ob mice; [8]
  GHb, Post: 5.4 ± 0.6 %
  Plasma ALT, Post: 632 ± 144 U·L^−1
  Plasma AST, Post: 492 ± 122 U·L^−1
HFD-fed ob/ob mice; day 34, CpdB 30 mg/kg, pioglitazone 3 mg/kg oral once daily, nonfasting, mean ± SD, n=8
  Plasma insulin, Post: 109 ± 40 ng/mL
HFD-fed ob/ob mice; [9]
  Average EE, Light, AVE: 0.45 kcal/h
  Average RQ, Light, AVE: 0.83
HFD-fed ob/ob mice; [10]
  Average EE, Light, individual animal: 0.46 kcal/h and 0.42 kcal/h and 0.43 kcal/h and 0.44 kcal/h and 0.49 kcal/h and 0.48 kcal/h
  Average RQ, Light, individual animal: 0.82 and 0.83 and 0.84 and 0.80
